How the values were obtained:
Assay type in all cases: functional
786-0 = assay: Growth inhibition of human 786-0 cells assessed as cell growth at 10^-4 M incubated for 48 hrs by sulforhodamine B assay relative to control; details: 786-0, 48 h, read-out: Activity
PC-3 [1] = assay: Growth inhibition of human PC3 cells incubated for 48 hrs by sulforhodamine B assay; details: PC-3, 48 h
MDA-MB-231 = assay: Growth inhibition of human MDA-MB-231 cells assessed as cell growth at 10^-8 M incubated for 48 hrs by sulforhodamine B assay relative to control; details: MDA-MB-231, 48 h, read-out: Activity
ACHN = assay: Growth inhibition of human ACHN cells incubated for 48 hrs by sulforhodamine B assay; details: for CC50: read-out: LC50 (the source's name)
NCI-H23 = assay: Growth inhibition of human NCI-H23 cells assessed as cell growth at 10^-6 M incubated for 48 hrs by sulforhodamine B assay relative to control; details: NCI-H23, 48 h, read-out: Activity
Hs-578T = assay: Growth inhibition of human Hs 578T cells incubated for 48 hrs by sulforhodamine B assay
OVCAR-4 [2] = assay: Growth inhibition of human OVCAR4 cells assessed as cell growth at 10^-5 M incubated for 48 hrs by sulforhodamine B assay relative to control; details: OVCAR-4, 48 h, read-out: Activity
HCT-15 = assay: Growth inhibition of human HCT15 cells incubated for 48 hrs by sulforhodamine B assay; details: HCT-15, 48 h; for CC50: read-out: LC50 (the source's name)
M14 = assay: Growth inhibition of human M14 cells assessed as cell growth at 10^-5 M incubated for 48 hrs by sulforhodamine B assay relative to control; details: M14, 48 h, read-out: Activity
NCI-H460 = assay: Growth inhibition of human NCI-H460 cells incubated for 48 hrs by sulforhodamine B assay; details: NCI-H460, 48 h
MDA-MB-435 = assay: Growth inhibition of human MDA-MB-435 cells incubated for 48 hrs by sulforhodamine B assay; details: MDA-MB-435, 48 h
SNB-75 = assay: Growth inhibition of human SNB75 cells incubated for 48 hrs by sulforhodamine B assay; details: SNB-75, 48 h; for CC50: read-out: LC50 (the source's name)
SF-539 [3] = assay: Growth inhibition of human SF539 cells assessed as cell growth at 10^-4 M incubated for 48 hrs by sulforhodamine B assay relative to control; details: SF-539, 48 h, read-out: Activity
NCI/ADR-RES = assay: Growth inhibition of human NCI/ADR-RES cells incubated for 48 hrs by sulforhodamine B assay; details: for CC50: read-out: LC50 (the source's name)
OVCAR-5 [4] = assay: Growth inhibition of human OVCAR5 cells incubated for 48 hrs by sulforhodamine B assay; details: OVCAR-5, 48 h; for CC50: read-out: LC50 (the source's name)
SK-MEL-28 = assay: Growth inhibition of human SK-MEL-28 cells incubated for 48 hrs by sulforhodamine B assay; details: SK-MEL-28, 48 h; for CC50: read-out: LC50 (the source's name)
OVCAR-4 [5] = assay: Growth inhibition of human OVCAR4 cells incubated for 48 hrs by sulforhodamine B assay; details: OVCAR-4, 48 h
Malme-3M = assay: Growth inhibition of human MALME-3M cells assessed as cell growth at 10^-5 M incubated for 48 hrs by sulforhodamine B assay relative to control; details: read-out: Activity
COLO 205 = assay: Growth inhibition of human COLO205 cells incubated for 48 hrs by sulforhodamine B assay; details: COLO 205, 48 h
HT-29 = assay: Growth inhibition of human HT-29 cells incubated for 48 hrs by sulforhodamine B assay; details: HT-29, 48 h
MOLT-4 = assay: Growth inhibition of human MOLT4 cells incubated for 48 hrs by sulforhodamine B assay; details: MOLT-4, 48 h; for CC50: read-out: LC50 (the source's name)
SF-539 [6] = assay: Growth inhibition of human SF539 cells incubated for 48 hrs by sulforhodamine B assay; details: SF-539, 48 h
PC-3 [7] = assay: Growth inhibition of human PC3 cells assessed as cell growth at 10^-7 M incubated for 48 hrs by sulforhodamine B assay relative to control; details: PC-3, 48 h, read-out: Activity
OVCAR-4 [8] = assay: Growth inhibition of human OVCAR4 cells assessed as cell growth at 10^-4 M incubated for 48 hrs by sulforhodamine B assay relative to control; details: OVCAR-4, 48 h, read-out: Activity
BT-549 [9] = assay: Growth inhibition of human BT549 cells assessed as cell growth at 10^-4 M incubated for 48 hrs by sulforhodamine B assay relative to control; details: BT-549, 48 h, read-out: Activity
BT-549 [10] = assay: Growth inhibition of human BT549 cells incubated for 48 hrs by sulforhodamine B assay; details: BT-549, 48 h
LOX IMVI = assay: Growth inhibition of human LOXIMVI cells assessed as cell growth at 10^-5 M incubated for 48 hrs by sulforhodamine B assay relative to control; details: read-out: Activity
NCI-H522 = assay: Growth inhibition of human NCI-H522 cells assessed as cell growth at 10^-7 M incubated for 48 hrs by sulforhodamine B assay relative to control; details: NCI-H522, 48 h, read-out: Activity
OVCAR-4 [11] = assay: Growth inhibition of human OVCAR4 cells assessed as cell growth at 10^-7 M incubated for 48 hrs by sulforhodamine B assay relative to control; details: OVCAR-4, 48 h, read-out: Activity
T47D [12] = assay: Growth inhibition of human T47D cells assessed as cell growth at 10^-7 M incubated for 48 hrs by sulforhodamine B assay relative to control; details: read-out: Activity
T47D [13] = assay: Growth inhibition of human T47D cells incubated for 48 hrs by sulforhodamine B assay
OVCAR-4 [14] = assay: Growth inhibition of human OVCAR4 cells assessed as cell growth at 10^-8 M incubated for 48 hrs by sulforhodamine B assay relative to control; details: OVCAR-4, 48 h, read-out: Activity
SNB-19 = assay: Growth inhibition of human SNB19 cells assessed as cell growth at 10^-6 M incubated for 48 hrs by sulforhodamine B assay relative to control; details: SNB-19, 48 h, read-out: Activity
OVCAR-5 [15] = assay: Growth inhibition of human OVCAR5 cells assessed as cell growth at 10^-4 M incubated for 48 hrs by sulforhodamine B assay relative to control; details: OVCAR-5, 48 h, read-out: Activity
HL-60(TB) = assay: Growth inhibition of human HL-60(TB) cells incubated for 48 hrs by sulforhodamine B assay; details: HL-60, 48 h
K562 = assay: Growth inhibition of human K562 cells incubated for 48 hrs by sulforhodamine B assay; details: K562, 48 h
[16] = read-out: LC50 (the source's name)

## CCCCOc1nc2ccccc2cc1C1CNC(=O)c2ccccc2N1 (stereo not drawn)
786-0
  growth at 100 µM: -76%
PC-3 [1]
  GI50: 3.06 µM
  TGI: 13.4 µM
PC-3 [1]; [16]
  CC50: 66.9 µM
MDA-MB-231
  growth at 0.01 µM: 98%
ACHN
  GI50: 3.92 µM
  TGI: 17.1 µM
  CC50: 5.95 µM
NCI-H23
  growth at 1 µM: 91%
Hs-578T
  GI50: 3.21 µM
  TGI: 33.8 µM
Hs-578T; [16]
  CC50: > 100 µM
OVCAR-4 [2]
  growth at 10 µM: 37%
HCT-15
  GI50: 1.92 µM
  TGI: 10.8 µM
  CC50: 48.6 µM
M14
  growth at 10 µM: 4%
NCI-H460
  GI50: 3.11 µM
  LC50 (concentration killing 50% of cells): 51.1 µM
  TGI: 11.6 µM
MDA-MB-435
  GI50: 0.34 µM
  TGI: 1.33 µM
MDA-MB-435; [16]
  CC50: 7.6 µM
SNB-75
  GI50: 1.81 µM
  TGI: 13.7 µM
  CC50: 48.3 µM
SF-539 [3]
  growth at 100 µM: -70%
NCI/ADR-RES
  GI50: 1.74 µM
  TGI: 6.7 µM
  CC50: 97 µM
OVCAR-5 [4]
  GI50: 6.42 µM
  TGI: 41 µM
  CC50: > 100 µM
SK-MEL-28
  GI50: 5.89 µM
  TGI: 27.3 µM
  CC50: 86.1 µM
OVCAR-4 [5]
  GI50: 5.38 µM
  TGI: 31.8 µM
OVCAR-4 [5]; [16]
  CC50: > 100 µM
Malme-3M
  growth at 10 µM: 41%
COLO 205
  GI50: 2.19 µM
  TGI: 4.95 µM
COLO 205; [16]
  CC50: 23 µM
HT-29
  GI50: 3.21 µM
  TGI: 11.1 µM
HT-29; [16]
  CC50: 67.7 µM
MOLT-4
  GI50: 3.05 µM
  TGI: 13.6 µM
  CC50: > 100 µM
SF-539 [6]
  GI50: 2.29 µM
  TGI: 7.47 µM
SF-539 [6]; [16]
  CC50: 44.9 µM
PC-3 [7]
  growth at 0.1 µM: 97%
OVCAR-4 [8]
  growth at 100 µM: -37%
BT-549 [9]
  growth at 100 µM: -25%
BT-549 [10]
  GI50: 5.22 µM
  TGI: 38.8 µM
BT-549 [10]; [16]
  CC50: > 100 µM
LOX IMVI
  growth at 10 µM: 15%
NCI-H522
  growth at 0.1 µM: 107%
OVCAR-4 [11]
  growth at 0.1 µM: 98%
T47D [12]
  growth at 0.1 µM: 99%
T47D [13]
  GI50: 5.32 µM
  TGI: > 100 µM
T47D [13]; [16]
  CC50: > 100 µM
OVCAR-4 [14]
  growth at 0.01 µM: 92%
SNB-19
  growth at 1 µM: 95%
OVCAR-5 [15]
  growth at 100 µM: -24%
HL-60(TB)
  GI50: 0.047 µM
  LC50: 65.4 µM
  TGI: 0.384 µM
K562
  GI50: 0.84 µM
  LC50: > 100 µM
  TGI: 16.4 µM

## COc1cccc2c1C(=O)c1c(O)c3c(c(O)c1C2=O)C[C@@](O)(C(=O)CO)C[C@@H]3O[C@H]1C[C@H](N)[C@H](O)[C@H](C)O1 [DOXORUBICIN]
PC-3 [1]
  GI50: 0.32 µM
ACHN
  GI50: 0.08 µM
  CC50: 100 µM
Hs-578T
  GI50: 0.33 µM
HCT-15
  CC50: 100 µM
NCI-H460
  GI50: 0.02 µM
MDA-MB-435
  GI50: 0.25 µM
SNB-75
  GI50: 0.07 µM
  CC50: 3.3 µM
NCI/ADR-RES
  CC50: 100 µM
OVCAR-5 [4]
  GI50: 0.41 µM
  CC50: 100 µM
SK-MEL-28
  GI50: 0.08 µM
  CC50: 0.49 µM
OVCAR-4 [5]
  GI50: 0.37 µM
COLO 205
  GI50: 0.18 µM
HT-29
  GI50: 0.12 µM
MOLT-4
  GI50: 0.03 µM
  CC50: 100 µM
SF-539 [6]
  GI50: 0.12 µM
BT-549 [10]
  GI50: 0.23 µM
T47D [13]
  GI50: 0.06 µM
HL-60(TB)
  GI50: 0.12 µM
K562
  GI50: 0.19 µM
